Test results: patent US20230081426A1, “COMPOUNDS AND METHODS FOR KRAS MODULATION AND INDICATIONS THEREFOR” (Plexxikon Inc., priority 2020, published 2023)

Tests used:
[1] = biological target: T1, G12C-mutant human KRAS (amino acid residues 1-188) (Homo sapiens, UniProt P01116, G12C); assay: KRAS Binding Disruption Assay (AlphaScreen; biotinylated KRpep-2d analogue or RAF1-RBD), G12C; settings: geometric mean, read-out: KRAS GMean IC50 (uM) MUTATION: G12C
T1 construct: G12D or G12C-mutant human KRAS (amino acid residues 1-188) with FLAG tag; made in house; host or cells: E. coli
How it was run: (§1)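 Mutant KRAS (5-20 nM) incubated 1 h at 25° C with test compound and 5-20 nM biotinylated KRpep-2d analogue or RAF1-RBD in 20 mM HEPES pH 7.5, 100 mM NaCl, 5 mM MgCl2, 0.01% Tween-20, 0.01% BSA.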

[2] = biological target: T2, G12D-mutant human KRAS (amino acid residues 1-188) (Homo sapiens, UniProt P01116, G12D); assay: KRAS Binding Disruption Assay (AlphaScreen; biotinylated KRpep-2d analogue or RAF1-RBD), G12D; settings: KRAS G12D; geometric mean; read-out: KRAS GMean IC50 (uM) MUTATION: G12D
T2 construct: G12D or G12C-mutant human KRAS (amino acid residues 1-188) with FLAG tag; made in house; host or cells: E. coli
How it was run: as §1

[3] = biological target: T3, G12V-mutant human KRAS (amino acid residues 1-188) (Homo sapiens, UniProt P01116, G12V); assay: KRAS Binding Competition Assay (AlphaScreen; biotinylated KRpep-2d analogue), G12V; settings: geometric mean, read-out: KRAS GMean IC50 (uM) MUTATION: G12V
T3 construct: G12V-mutant human KRAS (amino acid residues 1-188) with FLAG tag was purified from E. coli; made in house; host or cells: E. coli

Row | Structure (SMILES) | IC50 [1] [µM] | IC50 [2] [µM] | IC50 [3] [µM]
1 | NC(=O)N1[C@@H]2CC[C@H]1CN(c1nc(OCC34CCCN3CCC4)nc3cc(-c4cc(O)cc5ccccc45)ccc13)C2 [P-0067, (1R,5S)-3-(7-(3-hydroxynaphthalen-1-yl)-2-((tetrahydro-1H-pyrrolizin-7a(5H)-yl)methoxy)quinazolin-4-yl)-3,8-diazabicyclo[3.2.1]octane-8-carboxamide] | 0.0001 to 10 | 0.0001 to 10 | 0.0001 to 10
2 | O=C(Cn1ccnc1)N1[C@@H]2CC[C@H]1CN(c1nc(OCC34CCCN3CCC4)nc3c(F)c(-c4cc(O)cc5ccccc45)ccc13)C2 [P-0387, 1-((1R,5S)-3-(8-fluoro-7-(3-hydroxynaphthalen-1-yl)-2-((tetrahydro-1H-pyrrolizin-7a(5H)-yl)methoxy)quinazolin-4-yl)-3,8-diazabicyclo[3.2.1]octan-8-yl)-2-(1H-imidazol-1-yl)ethan-1-one] | 0.0001 to 10 | 0.0001 to 10 | 0.0001 to 10
3 | O=C1N=C(S)SC1CC(=O)N1[C@@H]2CC[C@H]1CN(c1nc(OCC34CCCN3CCC4)nc3c(F)c(-c4cc(O)cc5ccccc45)ccc13)C2 (stereo partly drawn) [P-0411, 5-(2-((1R,5S)-3-(8-fluoro-7-(3-hydroxynaphthalen-1-yl)-2-((tetrahydro-1H-pyrrolizin-7a(5H)-yl)methoxy)quinazolin-4-yl)-3,8-diazabicyclo[3.2.1]octan-8-yl)-2-oxoethyl)-2-mercaptothiazol-4(5H)-one] | 0.0001 to 10 | 0.0001 to 10 | 0.0001 to 10
4 | COC(=O)CCC(=O)N1[C@@H]2CC[C@H]1CN(c1nc(OCC34CCCN3CCC4)nc3cc(-c4cc(O)cc5ccccc45)ccc13)C2 [P-0068, methyl 4-((1R,5S)-3-(7-(3-hydroxynaphthalen-1-yl)-2-((tetrahydro-1H-pyrrolizin-7a(5H)-yl)methoxy)quinazolin-4-yl)-3,8-diazabicyclo[3.2.1]octan-8-yl)-4-oxobutanoate] | 0.0001 to 10 | 0.0001 to 10 | 0.0001 to 10
5 | O=C(O)CCC(=O)N1[C@@H]2CC[C@H]1CN(c1nc(OCC34CCCN3CCC4)nc3cc(-c4cc(O)cc5ccccc45)ccc13)C2 [P-0064, 4-((1R,5S)-3-(7-(3-hydroxynaphthalen-1-yl)-2-((tetrahydro-1H-pyrrolizin-7a(5H)-yl)methoxy)quinazolin-4-yl)-3,8-diazabicyclo[3.2.1]octan-8-yl)-4-oxobutanoic acid] | 0.0001 to 10 | 0.0001 to 10 | 0.0001 to 10
6 | O=C(N[C@H]1CC[C@@H](O)C1)N1[C@@H]2CC[C@H]1CN(c1nc(OCC34CCCN3CCC4)nc3cc(-c4cc(O)cc5ccccc45)ccc13)C2 [P-0130, (1R,5S)-N-((1S,3R)-3-hydroxycyclopentyl)-3-(7-(3-hydroxynaphthalen-1-yl)-2-((tetrahydro-1H-pyrrolizin-7a(5H)-yl)methoxy)quinazolin-4-yl)-3,8-diazabicyclo[3.2.1]octane-8-carboxamide] | 0.0001 to 10 | 0.0001 to 10 | 0.0001 to 10
7 | O=C(NC1CNC1)N1[C@@H]2CC[C@H]1CN(c1nc(OCC34CCCN3CCC4)nc3cc(-c4cc(O)cc5ccccc45)ccc13)C2 [P-0125, (1R,5S)-N-(azetidin-3-yl)-3-(7-(3-hydroxynaphthalen-1-yl)-2-((tetrahydro-1H-pyrrolizin-7a(5H)-yl)methoxy)quinazolin-4-yl)-3,8-diazabicyclo[3.2.1]octane-8-carboxamide] | 0.0001 to 10 | 0.0001 to 10 | 0.0001 to 10
8 | O=C1NC(=O)C(CCC(=O)N2[C@@H]3CC[C@H]2CN(c2nc(OCC45CCCN4CCC5)nc4c(F)c(-c5cc(O)cc6ccccc56)ccc24)C3)N1 (stereo partly drawn) [P-0375, 5-(3-((1R,5S)-3-(8-fluoro-7-(3-hydroxynaphthalen-1-yl)-2-((tetrahydro-1H-pyrrolizin-7a(5H)-yl)methoxy)quinazolin-4-yl)-3,8-diazabicyclo[3.2.1]octan-8-yl)-3-oxopropyl)imidazolidine-2,4-dione] | 0.0001 to 10 | 0.0001 to 10 | 0.0001 to 10
9 | O=C1CC(CC(=O)N2[C@@H]3CC[C@H]2CN(c2nc(OCC45CCCN4CCC5)nc4c(F)c(-c5cc(O)cc6ccccc56)ccc24)C3)C(=O)N1 (stereo partly drawn) [P-0356, 3-(2-((1R,5S)-3-(8-fluoro-7-(3-hydroxynaphthalen-1-yl)-2-((tetrahydro-1H-pyrrolizin-7a(5H)-yl)methoxy)quinazolin-4-yl)-3,8-diazabicyclo[3.2.1]octan-8-yl)-2-oxoethyl)pyrrolidine-2,5-dione] | 0.0001 to 10 | 0.0001 to 10 | 0.0001 to 10
10 | Oc1cc(-c2ccc3c(N4C[C@H]5CC[C@@H](C4)N5)nc(OCC45CCCCN4CCC5)nc3c2)c2ccccc2c1 (stereo partly drawn) [P-0102, 4-(4-((1R,5S)-3,8-diazabicyclo[3.2.1]octan-3-yl)-2-((hexahydroindolizin-8a(1H)-yl)methoxy)quinazolin-7-yl)naphthalen-2-ol] | 0.0001 to 10 | 0.0001 to 10 | 0.0001 to 10
11 | Cc1cccc2cc(O)cc(-c3c(F)cc4c(N5C[C@H]6CC[C@@H](C5)N6)nc(OCC56CCCN5CCC6)nc4c3F)c12 [P-0088, 4-(4-((1R,5S)-3,8-diazabicyclo[3.2.1]octan-3-yl)-6,8-difluoro-2-((tetrahydro-1H-pyrrolizin-7a(5H)-yl)methoxy)quinazolin-7-yl)-5-methylnaphthalen-2-ol] | 0.0001 to 10 | 0.0001 to 10 | 0.0001 to 10
12 | O=C1NC(=O)/C(=C/C(=O)N2[C@@H]3CC[C@H]2CN(c2nc(OCC45CCCN4CCC5)nc4c(F)c(-c5cc(O)cc6ccccc56)ccc24)C3)S1 [P-0443, (Z)-5-(2-((1R,5S)-3-(8-fluoro-7-(3-hydroxynaphthalen-1-yl)-2-((tetrahydro-1H-pyrrolizin-7a(5H)-yl)methoxy)quinazolin-4-yl)-3,8-diazabicyclo[3.2.1]octan-8-yl)-2-oxoethylidene)thiazolidine-2,4-dione] | 0.0001 to 10 | 0.0001 to 10 | 0.0001 to 10
13 | Oc1cc(-c2ccc3c(C4C[C@H]5CC[C@@H](C4)N5)nc(OCC45CCCN4CCC5)nc3c2)c2ccccc2c1 (stereo partly drawn) [P-0053, 4-(4-((1R,5S)-8-azabicyclo[3.2.1]octan-3-yl)-2-((tetrahydro-1H-pyrrolizin-7a(5H)-yl)methoxy)quinazolin-7-yl)naphthalen-2-ol] | 10 to 100 | 0.0001 to 10 | 10 to 100

More lines, now with the values ahead:

Row | IC50 [1] [µM] | IC50 [2] [µM] | IC50 [3] [µM] | Structure (SMILES)
14 | 0.0001 to 10 | 0.0001 to 10 | 0.0001 to 10 | CN1CCC[C@H]1COc1nc(N2C[C@H]3CC[C@@H](C2)N3C(=O)CC2SC(=O)NC2=O)c2cc(F)c(-c3cc(O)cc4ccccc34)c(F)c2n1 (stereo partly drawn) [P-0463, 5-(2-((1R,5S)-3-(6,8-difluoro-7-(3-hydroxynaphthalen-1-yl)-2-(((S)-1-methylpyrrolidin-2-yl)methoxy)quinazolin-4-yl)-3,8-diazabicyclo[3.2.1]octan-8-yl)-2-oxoethyl)thiazolidine-2,4-dione]
15 | 0.0001 to 10 | 0.0001 to 10 | 0.0001 to 10 | CN1CCC[C@H]1COc1nc(N2C[C@H]3CC[C@@H](C2)N3)c2cc(F)c(-c3cc(O)cc4ccccc34)c(F)c2n1 [P-0009, 4-(4-((1R,5S)-3,8-diazabicyclo[3.2.1]octan-3-yl)-6,8-difluoro-2-(((S)-1-methylpyrrolidin-2-yl)methoxy)quinazolin-7-yl)naphthalen-2-ol]
16 | 0.0001 to 10 | 0.0001 to 10 | 0.0001 to 10 | CN1CCC[C@H]1COc1nc(N2C[C@H]3CC[C@@H](C2)N3C(=O)NC2CCNC2)c2ccc(-c3cc(O)cc4ccccc34)c(F)c2n1 (stereo partly drawn) [P-0106, (1R,5S)-3-(8-fluoro-7-(3-hydroxynaphthalen-1-yl)-2-(((S)-1-methylpyrrolidin-2-yl)methoxy)quinazolin-4-yl)-N-(pyrrolidin-3-yl)-3,8-diazabicyclo[3.2.1]octane-8-carboxamide]
17 | 0.0001 to 10 | 0.0001 to 10 | 0.0001 to 10 | CN1CCC[C@H]1COc1nc(N2CC3COCC(C2)N3)c2ccc(-c3cc(O)cc4ccccc34)c(F)c2n1 [P-0249, 4-(4-(3-oxa-7,9-diazabicyclo[3.3.1]nonan-7-yl)-8-fluoro-2-(((S)-1-methylpyrrolidin-2-yl)methoxy)quinazolin-7-yl)naphthalen-2-ol]
18 | 0.0001 to 10 | 0.0001 to 10 | 0.0001 to 10 | Oc1cc(-c2c(F)cc3c(N4C[C@H]5CC[C@@H](C4)N5)nc(OCC45CCCN4CCC5)nc3c2F)c2ccccc2c1 [P-0010, 4-(4-((1R,5S)-3,8-diazabicyclo[3.2.1]octan-3-yl)-6,8-difluoro-2-((tetrahydro-1H-pyrrolizin-7a(5H)-yl)methoxy)quinazolin-7-yl)naphthalen-2-ol]
19 | 0.0001 to 10 | 0.0001 to 10 | 0.0001 to 10 | CN1CCC[C@H]1COc1nc(N2C[C@H]3CC[C@@H](C2)N3)c2ccc(-c3cc(O)cc4ccccc34)cc2n1 [P-0037, 4-(4-((1R,5S)-3,8-diazabicyclo[3.2.1]octan-3-yl)-2-(((S)-1-methylpyrrolidin-2-yl)methoxy)quinazolin-7-yl)naphthalen-2-ol]
20 | 0.0001 to 10 | 0.0001 to 10 | 0.0001 to 10 | CN1CCC[C@H]1COc1nc(N2C[C@H]3CC[C@@H](C2)N3C(=O)CC2SC(=O)NC2=O)c2ccc(-c3cc(O)cc4ccccc34)c(F)c2n1 (stereo partly drawn) [P-0279, 5-(2-((1R,5S)-3-(8-fluoro-7-(3-hydroxynaphthalen-1-yl)-2-(((S)-1-methylpyrrolidin-2-yl)methoxy)quinazolin-4-yl)-3,8-diazabicyclo[3.2.1]octan-8-yl)-2-oxoethyl)thiazolidine-2,4-dione]
